Assay results as given in patent US20250041311A1, “Compound For Treating or Preventing Vimentin-Mediated Diseases” (Aluda Pharmaceuticals, Inc., priority 2021, published 2025).
“Also recorded” adds a separate entry of the source.

Columns and labels:
[1] = system: Huh7-NC12 cells; experiment: Exosome release from liver cancer cells (luciferase exosome reporter, ExoHTP platform); assay type: cell-based; conditions: 48 h, luciferase activity of exosomes purified from supernatant
[2] = system: Huh7-NC12 cells; experiment: PrestoBlue cell viability of liver cancer cells; conditions: for cytotoxicity: 48 h, highest concentration 10,000 nM, high concentrations 3,160 and 10,000 nM; for survival rate: after two days of treatment; for toxicity to Huh7-NC12 cells: high concentrations (>3160 nM)
[3] = target: T1, vimentin (Homo sapiens, UniProt P08670); experiment: Immunofluorescence microscopy of the vimentin intermediate filament network; assay type: cell-based; parameters: react with mouse anti-VIM antibody (Sigma, 1:200) at room temperature; endogenous in cells; host or cells: U87 human glioma cells; conditions: U87 cells treated with C50 for 24 h, confocal immunofluorescence
Method: (§1) Cell culture: Human cancer cell lines were obtained from the Institute of Cell Research, Chinese Academy of Sciences or ATCC. Cells were cultured in an incubator with 5% CO2 in RMPI1640 supplemented with 10% fetal bovine serum, 2 mM L-glutamine and 1× penicillin-streptomycin (100 IU/ml-100 μg/ml).
Immunofluorescence microscopy: Cells were cultured in 4-well coverslips, treated with DMSO or C50 for 24 h, fixed with 2% paraformaldehyde at 37° C. for 15 minutes, permeabilized in 0.2% Triton X-100 PBS at room temperature Wash for 15 min, wash 3 times with 0.05% Triton X-100 TBS, block with 10% normal goat serum in 0.05% Triton X-100 TBS, then react with mouse anti-VIM antibody (Sigma, 1:200) at room temperature Incubate for 3 h. Cells were washed 3 times with 0.05% Triton X-100 in PBS, and then incubated with Cy TM3-conjugated anti-mouse IgG antibody (Jackson, 1:300) for 1 h at room temperature. Nuclei were stained with DAPI for 5-10 min. Immunofluorescence was observed using a FV1000 (Olympus) confocal microscope.
Target sequence in this assay (P08670 2-466 limits assumed): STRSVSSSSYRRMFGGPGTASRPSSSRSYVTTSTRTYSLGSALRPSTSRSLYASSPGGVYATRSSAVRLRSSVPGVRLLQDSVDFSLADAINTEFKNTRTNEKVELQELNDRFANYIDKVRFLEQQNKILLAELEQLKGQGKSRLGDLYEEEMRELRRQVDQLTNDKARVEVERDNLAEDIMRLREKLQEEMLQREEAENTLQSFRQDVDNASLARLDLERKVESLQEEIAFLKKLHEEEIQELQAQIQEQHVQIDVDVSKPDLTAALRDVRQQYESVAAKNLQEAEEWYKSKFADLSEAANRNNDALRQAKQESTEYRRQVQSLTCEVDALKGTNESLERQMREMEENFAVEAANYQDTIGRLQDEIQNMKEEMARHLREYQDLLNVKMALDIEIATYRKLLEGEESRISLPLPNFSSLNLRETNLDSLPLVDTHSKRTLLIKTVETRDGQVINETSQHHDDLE

[4] = target: T2, GFAP (Homo sapiens, UniProt P14136); experiment: Immunofluorescence microscopy of the GFAP network (specificity control); assay type: cell-based; conditions: U87 glioma cells treated with C50
T2 construct: endogenous in cells; host or cells: U87 human glioma cells

[5] = target: T1, vimentin; experiment: Fluorescence recovery after photobleaching (FRAP) of GFP-vimentin in U87 cells; assay type: cell-based; parameters: expressed in transfected cells; host or cells: U87 human glioma cells, transient transfection; conditions: cells treated with C50 for 24 h, vs DMSO
Method: as §1
Target sequence in this assay (P08670 whole entry, species assumed): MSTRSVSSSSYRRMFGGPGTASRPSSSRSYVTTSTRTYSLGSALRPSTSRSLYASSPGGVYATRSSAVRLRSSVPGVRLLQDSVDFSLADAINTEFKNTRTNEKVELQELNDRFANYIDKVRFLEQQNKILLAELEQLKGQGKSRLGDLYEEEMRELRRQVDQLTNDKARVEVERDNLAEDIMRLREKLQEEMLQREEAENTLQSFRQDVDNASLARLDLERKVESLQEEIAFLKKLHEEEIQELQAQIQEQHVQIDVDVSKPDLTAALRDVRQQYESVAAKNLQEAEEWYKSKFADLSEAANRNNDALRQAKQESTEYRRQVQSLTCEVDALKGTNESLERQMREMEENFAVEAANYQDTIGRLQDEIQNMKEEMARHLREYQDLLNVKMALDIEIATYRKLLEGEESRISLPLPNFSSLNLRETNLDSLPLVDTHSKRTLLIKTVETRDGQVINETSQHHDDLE
Fluorescence recovery after photobleaching (FRAP): Cells were cultured on 4-well coverslips and transiently transfected with pEGFP-Vim expression vector using Lipofectamine 2000 (Invitrogen) following the manufacturer's instructions. Twenty-four h after transfection, cells were treated with DMSO or C50 for 24 h. FRAP experiments were performed using a confocal microscope system (Fluoview 1,000; Olympus). For photobleaching, the region of interest (ROI) was irradiated with 60% laser power (488 nm) for 2 s. Images were taken every 30 s for 5 min to monitor fluorescence recovery. Fluorescence intensities were corrected for sample background at each time point. After data collection, the fluorescence intensity of ROI was extracted by ImageJ software.

[6] = system: EAE mice; experiment: MOG-induced experimental autoimmune encephalomyelitis (EAE) mouse model; assay type: in vivo; conditions: FTY720 1 mg/kg, oral once a day, vs vehicle

T2 sequence (P14136 whole entry): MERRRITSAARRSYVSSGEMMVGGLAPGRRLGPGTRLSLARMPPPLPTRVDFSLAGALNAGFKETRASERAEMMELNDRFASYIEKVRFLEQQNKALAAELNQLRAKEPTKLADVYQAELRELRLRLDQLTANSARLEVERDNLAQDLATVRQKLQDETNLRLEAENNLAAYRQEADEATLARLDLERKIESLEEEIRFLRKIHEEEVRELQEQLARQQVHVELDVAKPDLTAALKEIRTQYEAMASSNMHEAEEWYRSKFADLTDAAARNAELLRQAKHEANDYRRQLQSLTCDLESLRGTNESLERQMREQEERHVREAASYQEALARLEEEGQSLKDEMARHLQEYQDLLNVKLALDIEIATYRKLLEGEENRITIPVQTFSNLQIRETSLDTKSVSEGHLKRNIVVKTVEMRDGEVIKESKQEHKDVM

Row | SMILES | inhibition of exosome release [1] | cytotoxicity [2] | survival rate [2] | toxicity to Huh7-NC12 cells [2] | further results
1 | O=C(Nc1ccc(F)cc1)Nc1ccc(Nc2nc(/C=C/c3ccc(Cl)cc3)nc(N3CCOCC3)n2)cc1 [Compound C45] | stronger inhibitory effects than GW4869; also recorded: effectively inhibit the release of exosomes | not cytotoxic | about 90% | not toxic | 
2 | O=C(Nc1ccc(Cl)cc1)Nc1ccc(Nc2nc(/C=C/c3ccccc3)nc(N3CCOCC3)n2)cc1 [Compound C50] |  |  |  |  | reorganization of the vimentin network [3]: significant reorganization of the vimentin network; structural changes of GFAP intermediate filament protein [4]: no structural changes; time required to recover fluorescence in the photobleached region [5]: significantly delayed
3 | O=C(Nc1ccc(Nc2nc(/C=C/c3ccccc3)nc(N3CCOCC3)n2)cc1)Nc1ccnc(Cl)c1 [Compound C52M] | effectively inhibit the release of exosomes | cytotoxic |  | cytotoxic | 
4 | O=C(Nc1ccc(Nc2nc(/C=C/c3ccccc3)nc(N3CCOCC3)n2)cc1)Nc1ccc(C(=O)O)cc1 [Compound C69A] | stronger inhibitory effects than GW4869; also recorded: effectively inhibit the release of exosomes | not cytotoxic | about 90% | not toxic | 
5 | CN1CCN(C(=O)c2ccc(NC(=O)Nc3ccc(Nc4nc(/C=C/c5ccccc5)nc(N5CCOCC5)n4)cc3)cc2)CC1 [Compound C69B] | effectively inhibit the release of exosomes | cytotoxic |  | cytotoxic | 
6 | CCCCCCCCc1ccc(CCC(N)(CO)CO)cc1 [FTY720, reference compound] |  |  |  |  | animal weight loss [6]: reduced; clinical disease scores [6]: improved
7 | O=C(/C=C/c1ccc(/C=C/C(=O)Nc2ccc(C3=NCCN3)cc2)cc1)Nc1ccc(C2=NCCN2)cc1 [GW4869, reference compound] |  | not cytotoxic | about 90% |  | 
